Literature values as cited in patent US20240050452A1, “USE OF C[…] THE TREATMENT OF SEIZURES ASSOCIATED WITH EPILEPSY SYNDROMES IN PATIENTS TAKING BRIVARACETAM” (GW Research Limited, priority 2020, published 2024).

System: seizure frequencies
Conditions: increasing CBD dose combined with a constant BRV dose; seizure types not disclosed

In the case of `C=C(C)[C@@H]1CCC(C)=C[C@H]1c1c(O)cc(CCCCC)cc1O` [CBD, cannabidiol], the “effect on seizure frequencies” value is given as “reductions in seizure frequencies”.
